Data reported in article PMC8388125, “Kinetic and Structural Characterization of the Self-Labeling Protein Tags HaloTag7, SNAP-tag, and CLIP-tag” (Biochemistry, 2021).

What follows are molecules tested against T1, HT7^D106A (Rhodococcus sp., UniProt P59336, A155T/A167V/A224E/C128F/C176G/D106A/D78G/E160K/E257K/G292T/H272N/K175M/K195N/L47V/L88M/N227D/P291S/S2A/S58T/T264A/V172T/Y273L/Y87F) (assay: Affinity of HT7^D106A for CA substrates by fluorescence polarization). Details: not given.
T1 construct: made in house; host or cells: E. coli BL21(DE3)-pLysS
Format: binding
Procedure: Binding affinities of HT7^D106A or HOB^D106A for chloroalkane (CA) substrates were determined by fluorescence polarization (FP, eq 1) measurements using a microplate reader (Spark20M, Tecan Group AG, Männedorf, Switzerland). The fluorescent substrates (10 nM) were titrated against different protein concentrations (0–250 μM) in activity buffer supplemented with 0.5 g/L bovine serum albumin (BSA). Assays were performed in black low-volume nonbinding 384-well plates (Corning Inc., Corning, NY) with a final volume of 20 μL. Obtained FP values were averaged and fitted to a single-site binding model (eq 2) to estimate Kd values for each fluorescent substrate. The FP value of each dye fully reacted with the native HT7 was used to improve fitting of the upper plateau of the curves by adding an extra data point at a protein concentration of 0.1 M. [drawing 1] 1 where FP is the fluorescence polarization, I∥ is the fluorescence intensity parallel to the excitation light polarization, I⊥ is the fluorescence intensity perpendicular to the excitation light polarization, and G is the grating factor (G = I∥/I⊥). [drawing 2] 2 where FPmin is the fluorescence polarization of the free fluorophore (lower plateau), FPmax is the maximal fluorescence polarization of fully bound fluorophore (upper plateau), Kd is the dissociation constant, and [protein] is the protein concentration.
Free binding energies were calculated from Kd values according to eq 4: [drawing 4] 4 where ΔG is the free binding energy, R is the universal gas constant, T is the temperature, and Kd is the dissociation constant.

T1 sequence (P59336 other isoform, or with tags, fused parts or gaps with the stated changes): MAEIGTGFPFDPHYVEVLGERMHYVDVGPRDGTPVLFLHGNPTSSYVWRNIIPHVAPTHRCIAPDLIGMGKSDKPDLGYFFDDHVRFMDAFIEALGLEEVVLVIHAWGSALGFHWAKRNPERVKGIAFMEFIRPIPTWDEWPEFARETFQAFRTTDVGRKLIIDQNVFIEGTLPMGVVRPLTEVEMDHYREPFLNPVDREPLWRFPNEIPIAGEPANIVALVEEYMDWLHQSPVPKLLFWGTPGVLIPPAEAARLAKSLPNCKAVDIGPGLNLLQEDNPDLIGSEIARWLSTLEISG

Row | Compound | Kd
1 | CN(C)c1ccc2c(-c3ccc(C(=O)NCCOCCOCCCCCCCl)cc3C(=O)[O-])c3ccc(=[N+](C)C)cc-3oc2c1 [CA-5-TMR] | 39.4 µM

The molecules below were run against T2, SNAP-tag (SNAP) (Homo sapiens, UniProt P16455, A127T/A154D/C150Q/C62A/G131K/G132T/G153L/K125A/K32I/L33F/M134L/N157G/Q115S/Q116H/R128A/R135S/S151G/S152D/S159E) (assay: SNAP labeling kinetics via microplate reader (FP over time)). Details: SNAP, plate reader, kinetic model 1.
T2 construct: made in house; host or cells: E. coli BL21(DE3)-pLysS
T2 sequence (P16455 1-182 K32I/L33F/C62A/Q115S/Q116H/K125A/A127T/R128A/G131K/G132T/M134L/R135S/C150Q/S151G/S152D/G153L/A154D/N157G/S159E limits assumed): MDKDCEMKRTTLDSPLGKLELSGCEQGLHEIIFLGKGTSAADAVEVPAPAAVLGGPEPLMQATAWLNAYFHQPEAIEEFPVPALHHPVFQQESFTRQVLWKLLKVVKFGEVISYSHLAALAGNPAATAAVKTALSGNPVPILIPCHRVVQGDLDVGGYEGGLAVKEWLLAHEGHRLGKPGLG
Format: biochemical
Procedure: Labeling kinetics of SNAP and CLIP substrates were measured by recording FP over time using a microplate reader in a manner analogous to that of HT7 labeling kinetics described above with the following changes. The fluorescent substrate concentration was fixed to 20 nM, and protein concentrations were varied from 15 to 900 nM. Measurements were performed in SNAP-FP buffer.
Kinetic data from microplate reader assays were fitted to a simplified kinetic model (eq 13) described by differential eqs 14–16 using DynaFit. The dead time of the measurements and baseline FP value were put in as fixed parameters. Standard deviations (normal distribution verified) and confidence intervals of fitted parameters were estimated with the Monte Carlo method with standard settings (N = 1000, 5% worst fits discarded). In the case of BG, CP, and BC kinetics, the substrate concentration was fitted by DynaFit to rule out quantification errors of the BG, CP, or BC fluorophores. Accurate fitting of the concentration was ensured by including conditions under which protein is limiting and no maximum FP value was reached.

Row | kapp (value ± standard deviation) | Compound
2 | (2.17 ± 0.01) × 10^5 M^–1 s^–1 | CN(C)c1ccc2c(c1)C(C)(C)C1=CC(=[N+](C)C)C=CC1=C2c1cc(C(=O)NCc2ccc(COc3nc(N)nc4[nH]cnc34)cc2)ccc1C(=O)[O-] [BG-CPY]

Same assay, conditions: SNAP, plate reader, third kinetic model with slow aging event (*)

Row | kapp (value ± standard deviation) | Compound
3 | (1.59 ± 0.01) × 10^4 ^* M^–1 s^–1 | CN(C)c1ccc2c(c1)C(C)(C)C1=CC(=[N+](C)C)C=CC1=C2c1cc(C(=O)NCc2ccc(COc3cc(Cl)nc(N)n3)cc2)ccc1C(=O)[O-] [CP-CPY]

These molecules were tested against T3, HaloTag7 (HT7) (Rhodococcus sp., UniProt P59336, A155T/A167V/A224E/C128F/C176G/D78G/E160K/E257K/G292T/H272N/K175M/K195N/L47V/L88M/N227D/P291S/S2A/S58T/T264A/V172T/Y273L/Y87F) (assay: HT7 labeling kinetics via stopped flow (fluorescence anisotropy)). Details: HT7.
T3 construct: made in house; host or cells: E. coli BL21(DE3)-pLysS
Format: biochemical
Procedure: Labeling kinetics of HT7 with CA-TMR, CA-JF549, CA-CPY, CA-LIVE580, and CA-JF669 and labeling kinetics of HOB with CA-TMR were measured by recording fluorescence anisotropy changes over time using a BioLogic SFM-400 stopped-flow instrument (BioLogic Science Instruments, Claix, France) in a single-mixing configuration at 37 °C. HT7 protein and substrates in activity buffer were mixed in a 1:1 stoichiometry to reach a recordable speed for these fast reactions and to increase the information content of the traces. Concentrations were varied from 0.125 to 1 μM. The anisotropy of the free substrate was measured to obtain a baseline.
Kinetic stopped-flow data were preprocessed using a custom R script.[36],[37] Recorded pretrigger time points were removed, and time points were adjusted to start at time zero. Values from replicates were averaged. The anisotropy of the free dye was calculated by averaging anisotropy values of the baseline measurements. Preprocessed data were fitted to a kinetic model (eqs 5 and 6) described by differential eqs 7–10 using the DynaFit software.[38] The anisotropy of the free dye and the mixing delay of the stopped-flow machine were set as fixed offset and delay parameters in DynaFit. It was assumed that the protein substrate complex and the reacted product are contributing equally to the anisotropy signal. […] Standard deviations (normal distribution verified) and confidence intervals of fitted parameters were estimated with the Monte Carlo method[39] with standard settings (N = 1000, 5% worst fits discarded). In the case of SNAP kinetics with BG-TMR, the substrate concentration was fitted by DynaFit to rule out quantification errors of the BG-quenched fluorophore. Accurate fitting of the concentration was ensured by including conditions in which protein is limiting and no maximum FP value was reached.

T3 sequence (P59336 other isoform, or with tags, fused parts or gaps with the stated changes): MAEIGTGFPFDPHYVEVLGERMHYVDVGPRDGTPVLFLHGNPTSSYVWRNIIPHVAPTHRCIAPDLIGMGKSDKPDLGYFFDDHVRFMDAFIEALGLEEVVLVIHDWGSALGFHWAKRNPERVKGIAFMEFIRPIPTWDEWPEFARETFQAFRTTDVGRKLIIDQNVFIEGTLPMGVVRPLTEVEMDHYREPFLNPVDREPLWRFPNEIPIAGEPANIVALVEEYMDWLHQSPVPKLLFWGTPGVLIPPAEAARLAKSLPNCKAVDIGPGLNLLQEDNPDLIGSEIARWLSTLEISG

Row | Compound | fold increase in labeling kinetics relative to CA-PEG-biotin
4 | CN(CCCC(=O)NCCOCCOCCOCCNC(=O)CCCC[C@H]1SC[C@H]2NC(=O)N[C@H]21)c1ccc2c(-c3cc(C(=O)NCCOCCOCCCCCCCl)ccc3C(=O)[O-])c3ccc(=[N+](C)C)cc-3oc2c1 [CA-TMR-biotin] | > 500 fold

Same assay, conditions: HT7, stopped flow, model 2

Row | Compound | k2 (± S.D.)
5 | CN(CCCC(=O)NCCOCCOCCOCCNC(=O)CCCC[C@H]1SC[C@H]2NC(=O)N[C@H]21)c1ccc2c(-c3cc(C(=O)NCCOCCOCCCCCCCl)ccc3C(=O)[O-])c3ccc(=[N+](C)C)cc-3oc2c1 [CA-TMR-biotin] | 8.24 (± 0.28) s-1
6 | C[Si]1(C)C2=CC(=[N+]3CCC3)C=CC2=C(c2c(F)c(C(=O)NCCOCCOCCCCCCCl)c(F)c(F)c2C(=O)[O-])c2ccc(N3CCC3)cc21 [CA-JF669] | 6.94 (± 0.47) s-1

These molecules were tested against T3, HaloTag7 (HT7) (assay: HT7 competitive labeling kinetics against CA-Alexa488). Details: HT7, nonfluorescent substrates, competition with CA-Alexa488, 37 °C.
Format: biochemical
Procedure: Competitive kinetics were measured by recording FP over time using a microplate reader (Spark20M, Tecan). The final concentrations of CA-Alexa488 (50 nM) and HT7 protein (200 nM) remained constant with varying concentrations of nonfluorescent substrates (0–1 μM) in activity buffer supplemented with 0.5 g/L BSA. Assays were performed in black nonbinding flat bottom 96-well plates with a final reaction volume of 200 μL. Labeling reactions were started by adding the HT7 protein to wells containing CA-Alexa488 and nonfluorescent substrates using an electronic 96-channel pipettor (Integra Bioscience Corp., Hudson, NH). The FP of free CA-Alexa488 was measured to obtain a baseline.
(§1) Data were fitted to a simplified kinetic competition model (eqs 19 and 20) described by differential eqs 21–25 using DynaFit. The dead time of the measurements and baseline FP value were put in as fixed parameters. Standard deviations (normal distribution verified) and confidence intervals of fitted parameters were estimated with the Monte Carlo method with standard settings (N = 1000, 5% worst fits discarded). [drawing 19] 19 [drawing 20] 20 where P is the SLP protein, S is the fluorescent SLP substrate, I is the nonfluorescent SLP substrate (inhibitor), PS is the protein–fluorescent substrate conjugate, and PI is the protein–nonfluorescent substrate conjugate. [drawing 21] 21 [drawing 22] 22 [drawing 23] 23 [drawing 24] 24 [drawing 25] 25

Row | Compound | kapp (value ± standard deviation)
7 | O=C(NCCOCCOCCCCCCCl)C1CC2C=CC1C2 (centres unmarked) [CA-Nor1] | (6.68 ± 0.06) × 10^3 M^–1 s^–1
8 | O=C(NCCOCCOCCCCCCCl)OC1C#CCCCCC1 (centres unmarked) [CA-SCO] | (2.52 ± 0.05) × 10^5 M^–1 s^–1
9 | [N-]=[N+]=NCC(=O)NCCOCCOCCCCCCCl [CA-N3] | (6.00 ± 0.06) × 10^3 M^–1 s^–1
10 | O=C(NCCOCCOCCCCCCCl)OC[C@@H]1[C@@H]2CCC#CCC[C@@H]21 [CA-BCN] | (2.04 ± 0.03) × 10^5 M^–1 s^–1
11 | C=Cc1ccc(C(=O)NCCOCCOCCCCCCCl)cc1 [CA-Vbn] | (8.68 ± 0.07) × 10^3 M^–1 s^–1
12 | [N-]=[N+]=Nc1ccc(C(=O)NCCOCCOCCCCCCCl)cc1 [CA-PhN3] | (2.14 ± 0.02) × 10^4 M^–1 s^–1
13 | O=C(CC1CC2C=CC1C2)NCCOCCOCCCCCCCl (centres unmarked) [CA-Nor2] | (6.15 ± 0.07) × 10^3 M^–1 s^–1
14 | Cc1nnc(-c2ccc(CC(=O)NCCOCCOCCCCCCCl)cc2)nn1 [CA-Tz] | (3.13 ± 0.03) × 10^4 M^–1 s^–1

Each molecule was assayed against T2, SNAP-tag (SNAP) (assay: SNAP competitive labeling kinetics against BG-Alexa488). Details: nonfluorescent substrates, competition with BG-Alexa488.
Format: biochemical
Procedure: Competitive kinetics were measured by recording FP over time using a microplate reader in a manner analogous to that for HT7 competition kinetics described above using 100 nM BG-Alexa488 as the fluorescent substrate in SNAP-FP buffer.
as §1

Row | kapp (value ± standard deviation) | Compound
15 | (6.36 ± 0.41) × 10^3 M^–1 s^–1 | [N-]=[N+]=NCC(=O)NCc1ccc(COc2cc(Cl)nc(N)n2)cc1 [CP-N3]
16 | (1.77 ± 0.04) × 10^4 M^–1 s^–1 | Nc1nc(Cl)cc(OCc2ccc(CNC(=O)C3CC4C=CC3C4)cc2)n1 (centres unmarked) [CP-Nor1]
17 | (7.34 ± 0.01) × 10^4 M^–1 s^–1 | Nc1nc(OCc2ccc(CNC(=O)C3CC4C=CC3C4)cc2)c2nc[nH]c2n1 (centres unmarked) [BG-Nor1]
18 | (1.48 ± 0.05) × 10^4 M^–1 s^–1 | CC(=O)NCc1ccc(COc2nc(N)nc3[nH]cnc23)cc1 [BG-Ac]
19 | (3.75 ± 0.06) × 10^4 M^–1 s^–1 | Nc1nc(OCc2ccc(CNC(=O)OC3C#CCCCCC3)cc2)c2nc[nH]c2n1 (centres unmarked) [BG-SCO]
20 | (4.22 ± 0.61) × 10^3 M^–1 s^–1 | Nc1nc(Cl)cc(OCc2ccc(CNC(=O)OC3C#CCCCCC3)cc2)n1 (centres unmarked) [CP-SCO]
21 | (5.50 ± 0.45) × 10^3 M^–1 s^–1 | C=Cc1ccc(C(=O)NCc2ccc(COc3cc(Cl)nc(N)n3)cc2)cc1 [CP-Vbn]
22 | (3.70 ± 0.09) × 10^4 M^–1 s^–1 | [N-]=[N+]=NCC(=O)NCc1ccc(COc2nc(N)nc3[nH]cnc23)cc1 [BG-N3]
23 | (3.84 ± 0.07) × 10^4 M^–1 s^–1 | C=Cc1ccc(C(=O)NCc2ccc(COc3nc(N)nc4[nH]cnc34)cc2)cc1 [BG-Vbn]

Further lines, the molecule ahead of its results:

Row | Compound | kapp (value ± standard deviation)
24 | Cc1nnc(-c2ccc(CC(=O)NCc3ccc(COc4nc(N)nc5[nH]cnc45)cc3)cc2)nn1 [BG-Tz] | (3.94 ± 0.08) × 10^4 M^–1 s^–1
25 | [N-]=[N+]=Nc1ccc(C(=O)NCc2ccc(COc3cc(Cl)nc(N)n3)cc2)cc1 [CP-PhN3] | (2.91 ± 0.40) × 10^3 M^–1 s^–1
26 | Nc1nc(Cl)cc(OCc2ccc(CNC(=O)OC[C@@H]3[C@@H]4CCC#CCC[C@@H]43)cc2)n1 [CP-BCN] | (3.34 ± 0.31) × 10^3 M^–1 s^–1
27 | [N-]=[N+]=Nc1ccc(C(=O)NCc2ccc(COc3nc(N)nc4[nH]cnc34)cc2)cc1 [BG-PhN3] | (4.78 ± 0.09) × 10^4 M^–1 s^–1
28 | Nc1nc(OCc2ccc(CNC(=O)OC[C@@H]3[C@@H]4CCC#CCC[C@@H]43)cc2)c2nc[nH]c2n1 [BG-BCN] | (3.88 ± 0.07) × 10^4 M^–1 s^–1
29 | Nc1nc(OCc2ccccc2)c2nc[nH]c2n1 [BG, benzylguanine] | (1.87 ± 0.05) × 10^4 M^–1 s^–1
